Patent publication US5276170A, “Azido-substituted aromatic amino acids” (The United States of America as represented by the …, priority 1992, dated 1994)
Where two headings read alike, the source gives them in different places.

Experiments:
[1] = system: PC12 cells; experiment: Effect on PC12 cell growth ([3H]thymidine and [3H]leucine incorporation over 5 days); format: cell-based; details: presence and absence of NGF
Protocol: Cell growth was estimated both visually and by the incorporation of [^3 H]thymidine and [^3 H]leucine over a period of 5 days in the presence and absence of nerve growth factor, 50 nanogm/well (NGF-7S was obtained from Boehringer Mannheim Biochemicals, Indianapolis, Ind.; labeled amino acids and thymidine were obtained from New England Nuclear, Boston, Mass.). On day one, compound 1 was added in concentrations ranging from 0.005 to 1.5 mM. Less than 10% inhibition in isotope-incorporation was observed between control and cultures over the five day period.

[2] = molecular target: tyrosine phenol-lyase (Citrobacter freundii, UniProt P31013); experiment: Tyrosine phenol-lyase catalyzed hydrolytic cleavage to ammonium pyruvate and 3-azidophenol; format: biochemical; details: as substrate; % of Vmax of L-tyrosine
Chain of tyrosine phenol-lyase (P31013 whole entry, species assumed): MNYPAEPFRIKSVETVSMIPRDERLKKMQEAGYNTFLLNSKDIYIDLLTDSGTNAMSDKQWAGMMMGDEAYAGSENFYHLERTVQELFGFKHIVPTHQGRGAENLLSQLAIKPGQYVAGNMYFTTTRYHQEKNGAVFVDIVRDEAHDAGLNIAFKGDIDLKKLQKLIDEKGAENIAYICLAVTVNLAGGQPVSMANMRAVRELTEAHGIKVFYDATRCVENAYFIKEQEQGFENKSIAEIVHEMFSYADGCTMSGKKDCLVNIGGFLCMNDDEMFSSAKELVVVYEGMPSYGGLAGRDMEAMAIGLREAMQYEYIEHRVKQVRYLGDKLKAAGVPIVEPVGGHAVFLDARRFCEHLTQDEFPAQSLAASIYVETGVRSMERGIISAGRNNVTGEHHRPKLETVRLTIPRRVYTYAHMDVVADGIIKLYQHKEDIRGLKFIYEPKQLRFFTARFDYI

[3] = system: mushroom tyrosinase (sigma); experiment: Mushroom tyrosinase oxidation (UV/visible spectra; dopaquinone production at 480 nm); format: biochemical
Description: Thus, compound 1 is apparently able to bind strongly to mushroom tyrosinase.

[4] = system: PC12 cells; experiment: Incorporation of tyrosine, leucine and thymidine into PC12 cells; format: cell-based; details: for inhibition at 1000 µM: Rattus norvegicus
Protocol: The incorporation (2 μCi/well) of [^14 CU]tyrosine, [^3 H]thymidine were measured in the presence and absence of 2-azidotyrosine (1.0 mM) over a period of 72 hours. PC12 cells were grown as monolayers in 150 cm^2 tissue culture flasks at 37° C. in 6% CO2 in Dulbecco's modified Eagle's medium supplemented with 7% fetal bovine serum, 7% horse serum, and 100 μg streptomycin and 100 units of penicillin per ml. The cells were split after 3 days and aliquots (2 ml) transferred to 6 well culture plates. 2-Azidotyrosine (final concentration, 1 mM), [^14 CU] tyrosine (2 μCi/well), [^3 H]leucine (2 μCi/well), and [^3 H]thymidine (2 μCi/well) were added in 0.5 ml solutions in cell media. The final volume of each well was adjusted to 3.0 ml. The cultures were incubated in the dark at 37° C. in 6% CO2 for 12, 24, 48 and 72 hrs. Cells were removed and transferred to conical tubes (10 ml), sedimented by centrifugation, and washed 3X with phosphate buffered saline, pH 7.2. The cell sediment was dissolved in 0.5 ml of a solution of 0.5N NAOH containing 1% SDS over a period of 30 min., neutralized with 0.5 ml 0.5N HCl, and the isotope content measured by scintillation spectrometry. The results are expressed at the mean±SEM for 3 wells for each set of conditions.

Compound: [N-]=[N+]=Nc1cc(O)ccc1C[C@H](N)C(=O)O [compound 1, 2-azido-L-tyrosine]
- inhibition in isotope-incorporation ([1]; 0.005 to 1.5 mM, [3H]thymidine and [3H]leucine, five day period): Less than 10%
- growth of PC12 cells ([1]; maximum concentration 1.5 mM, 5 days): did not significantly inhibit
- Vmax (relative to that of L-tyrosine) [2]: 18%
- lag period before oxidation of L-tyrosine ([3]; 0.1 mM, equimolar L-tyrosine, dopaquinone at 480 nm): much longer lag periods
- hydroxylation by mushroom tyrosinase ([3]; extensive incubation, UV and visible absorption spectra): not hydroxylated
- binding to mushroom tyrosinase ([3]; inferred from lag period): bind strongly
- incorporation of [3H]leucine ([4]; 1.0 mM, up to 72 hrs): not significantly different from control
- inhibition at 1000 µM ([4]; PC-12, 1.0 mM, 24 hours, read-out: inhibition of [3H]thymidine incorporation): 34%
- inhibition at 1000 µM ([4]; PC-12, 1.0 mM, 72 hours, read-out: inhibition of [3H]thymidine incorporation): 24%
- inhibition at 1000 µM ([4]; PC-12, 24 h, 1.0 mM, 24 hrs, compared to untreated controls, read-out: inhibition of [14CU]tyrosine incorporation): ~58%
- inhibition at 1000 µM ([4]; PC-12, 72 h, 1.0 mM, 72 hrs, compared to untreated controls, read-out: inhibition of [14CU]tyrosine incorporation): ~38%
